In PubChem BioAssay AID256 (DTP/NCI, 2004):
“And” between values parts separate entries of the source, which are not always exact repeats. Equal entries are not always repeated. Toxic doses and inconclusive results are not listed.

Test system: CD2F1 mice, L1210 leukemia ip, survival T/C
Experiment: NCI In Vivo Anticancer Drug Screen. Data for tumor model L1210 Leukemia (intraperitoneal) in CD2F1 (CDF1) mice
Settings: higher = longer survival
Outline: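 Transplantable tumor in mice; compound-treated vs vehicle-treated groups. Read-out = treated/control ratio of the measured endpoint.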

[1] = endpoint: mean survival time, dose: 50.0 mg/kg/injection, schedule: Q01DX009 (ip), vehicle: saline with Tween-80
[2] = endpoint: mean survival time, dose: 100.0 mg/kg/injection, schedule: Q01DX009 (ip), vehicle: saline with Tween-80
[3] = endpoint: mean survival time, dose: 200.0 mg/kg/injection, schedule: Q01DX009 (ip), vehicle: saline with Tween-80
[4] = endpoint: mean survival time, dose: 25.0 mg/kg/injection, schedule: Q04DX002 (ip), vehicle: saline with Tween-80
[5] = endpoint: mean survival time, dose: 50.0 mg/kg/injection, schedule: Q04DX002 (ip), vehicle: saline with Tween-80
[6] = endpoint: mean survival time, dose: 100.0 mg/kg/injection, schedule: Q04DX002 (ip), vehicle: saline with Tween-80
[7] = endpoint: mean survival time, dose: 400.0 mg/kg/injection, schedule: Q04DX002 (ip), vehicle: saline with Tween-80
[8] = endpoint: mean survival time, dose: 200.0 mg/kg/injection, schedule: Q04DX002 (ip), vehicle: saline with Tween-80
[9] = endpoint: mean survival time, dose: 100.0 mg/kg/injection, schedule: Q04DX003 (ip), vehicle: saline with Tween-80
[10] = endpoint: mean survival time, dose: 200.0 mg/kg/injection, schedule: Q04DX003 (ip), vehicle: saline with Tween-80
[11] = endpoint: mean survival time, dose: 400.0 mg/kg/injection, schedule: Q04DX003 (ip), vehicle: saline with Tween-80
[12] = endpoint: mean survival time, dose: 100.0 mg/kg/injection, schedule: Q01DX009 (ip), vehicle: Klucel (hydroxypropylcellulose) (HPC)
[13] = endpoint: mean survival time, dose: 200.0 mg/kg/injection, schedule: Q01DX009 (ip), vehicle: Klucel (hydroxypropylcellulose) (HPC)
[14] = endpoint: mean survival time, dose: 100.0 mg/kg/injection, schedule: Q01DX001 (ip), vehicle: saline
[15] = endpoint: mean survival time, dose: 200.0 mg/kg/injection, schedule: Q01DX001 (ip), vehicle: saline
[16] = endpoint: mean survival time, dose: 400.0 mg/kg/injection, schedule: Q01DX001 (ip), vehicle: saline
[17] = endpoint: mean survival time, dose: 25.0 mg/kg/injection, schedule: Q01DX009 (ip), vehicle: saline with Tween-80
[18] = endpoint: mean survival time, dose: 100.0 mg/kg/injection, schedule: Q04DX003 (ip), vehicle: saline
[19] = endpoint: mean survival time, dose: 200.0 mg/kg/injection, schedule: Q04DX003 (ip), vehicle: saline
[20] = endpoint: mean survival time, dose: 400.0 mg/kg/injection, schedule: Q04DX003 (ip), vehicle: saline
[21] = endpoint: mean survival time, dose: 100.0 mg/kg/injection, schedule: Q04DX003 (ip), vehicle: saline sonified
[22] = endpoint: mean survival time, dose: 12.5 mg/kg/injection, schedule: Q01DX009 (ip), vehicle: saline with Tween-80
[23] = endpoint: mean survival time, dose: 100.0 mg/kg/injection, schedule: Q01DX001 (ip), vehicle: Klucel (hydroxypropylcellulose) (HPC)

In the case of `O=C(NC(=S)N1CCCC1)c1ccccc1`, the T/C [1] was 101 % of control, the T/C [2] was 103 % of control and the T/C [3] was 106 % of control.
With `CCCCCCCCCOc1ccc(Cl)cc1` the T/C [4] was 95 % of control, the T/C [5] was 100 % of control and the T/C [6] was 90 % of control and 95 % of control. For the same molecule, the T/C [7] was 93 % of control.
For `CCCCCOP(N)(=O)OCCCCC`, the T/C [6] was 88 % of control, the T/C [8] was 92 % of control and the T/C [7] was 100 % of control.
In the case of `CCOC(=O)c1c(F)c(F)c(Oc2c(F)c(F)c(F)c(F)c2F)c(F)c1F`, the T/C [9] was 86 % of control, the T/C [10] was 96 % of control and the T/C [11] was 92 % of control.
`Nc1ccc(-c2ccc(N)c(Cl)c2)cc1Cl` was tested, and the T/C [12] was 105 % of control, the T/C [13] was 103 % of control and the T/C (endpoint: mean survival time, dose: 400.0 mg/kg/injection, schedule: Q01DX009 (ip), vehicle: Klucel (hydroxypropylcellulose) (HPC)) was 100 % of control.
`CC(O)CN(C)C` (stereo not drawn) was tested, and the T/C [14] was 98 % of control, the T/C [15] was 103 % of control and the T/C [16] was 103 % of control.
For `Nc1ccccc1N`, the T/C [17] was 95 % of control and the T/C [3] was 93 % of control.
For `COC(=N)/C(C#N)=N/C1OCC(O)C(O)C1O` (stereo not drawn), the T/C (endpoint: mean survival time, dose: 12.5 mg/kg/injection, schedule: Q01DX005 (ip), vehicle: other) was 101 % of control, the T/C (endpoint: mean survival time, dose: 25.0 mg/kg/injection, schedule: Q01DX005 (ip), vehicle: other) was 102 % of control and the T/C (endpoint: mean survival time, dose: 50.0 mg/kg/injection, schedule: Q01DX005 (ip), vehicle: other) was 102 % of control. For the same molecule, the T/C (endpoint: mean survival time, dose: 100.0 mg/kg/injection, schedule: Q01DX005 (ip), vehicle: other) was 102 % of control and the T/C (endpoint: mean survival time, dose: 200.0 mg/kg/injection, schedule: Q01DX005 (ip), vehicle: other) was 101 % of control.
With `O=C(COc1ccc(Cl)c(Cl)c1)Nc1ccc[n+](Cc2cccc(Cl)c2S(=O)(=O)F)c1` the T/C [9] was 97 % of control and the T/C [10] was 105 % of control.
For `Cc1c(F)c(F)c(C(=O)O)c(F)c1F`, the T/C [2] was 96 % of control, the T/C [9] was 100 % of control and the T/C [3] was 93 % of control. The T/C [10] was 101 % of control and the T/C [11] was 93 % of control.
In the case of `CCCCCOCC`, the T/C [6] was 102 % of control, the T/C [8] was 98 % of control and the T/C [7] was 98 % of control.
With `O=S(=O)(/C=C\c1ccccc1)Oc1ccccc1` the T/C [14] was 100 % of control, the T/C [18] was 96 % of control and the T/C [15] was 100 % of control. The T/C [19] was 95 % of control, the T/C [16] was 93 % of control and the T/C [20] was 90 % of control.
In the case of `O=C[N]([Hg][Cl])c1ccccc1`, the T/C (endpoint: mean survival time, dose: 6.25 mg/kg/injection, schedule: Q01DX009 (ip), vehicle: saline with Tween-80) was 86 % of control.
For `[Co].[NH-]CC[NH-].[NH-]CC[NH-].[NH-]CC[NH-]`, the T/C [17] was 93 % of control, the T/C [1] was 101 % of control and the T/C [2] was 110 % of control. For the same molecule, the T/C [21] was 104 % of control.
In the case of `O=C1OC(c2ccc(Cl)cc2)=N/C1=C\c1ccccc1`, the T/C (endpoint: mean survival time, dose: 100.0 mg/kg/injection, schedule: Q01DX009 (ip), vehicle: acetone) was 97 % of control and the T/C (endpoint: mean survival time, dose: 200.0 mg/kg/injection, schedule: Q01DX009 (ip), vehicle: acetone) was 101 % of control.
In the case of `NC(=O)CC[n+]1ccccc1`, the T/C (endpoint: mean survival time, dose: 12.5 mg/kg/injection, schedule: Q04DX003 (ip), vehicle: saline) was 97 % of control, the T/C (endpoint: mean survival time, dose: 25.0 mg/kg/injection, schedule: Q04DX003 (ip), vehicle: saline) was 97 % of control and the T/C (endpoint: mean survival time, dose: 50.0 mg/kg/injection, schedule: Q04DX003 (ip), vehicle: saline) was 96 % of control.
In the case of `C=CC[n+]1cc2c3ccccc3c(N)cc2c2ccccc21`, the T/C (endpoint: mean survival time, dose: 1.56 mg/kg/injection, schedule: Q04DX003 (ip), vehicle: water) was 106 % of control, the T/C (endpoint: mean survival time, dose: 3.13 mg/kg/injection, schedule: Q04DX003 (ip), vehicle: water) was 108 % of control and the T/C (endpoint: mean survival time, dose: 6.25 mg/kg/injection, schedule: Q04DX003 (ip), vehicle: water) was 98 % of control.
With `[Cl][Pt+2]([Cl])([Cl])[Cl].[NH-]C1CCCCC1.[NH-]C1CCCCC1` the T/C [22] was 96 % of control, the T/C [17] was 91 % of control and the T/C [1] was 100 % of control. The T/C [2] was 89 % of control.
`CC1(C)N=C(N)N=C(N)N1c1ccc(Cl)c(Cl)c1` was tested, and the T/C [4] was 102 % of control, the T/C [5] was 98 % of control and the T/C [23] was 96 % of control. For the same molecule, the T/C [6] was 90 % of control.
`COc1cc2c(cc1OC)C(CCN1C(=O)CCC1=O)=NCC2` was tested, and the T/C (endpoint: mean survival time, dose: 50.0 mg/kg/injection, schedule: Q01DX009 (ip), vehicle: saline sonified) was 96 % of control, the T/C (endpoint: mean survival time, dose: 100.0 mg/kg/injection, schedule: Q01DX009 (ip), vehicle: saline sonified) was 102 % of control and the T/C [21] was 98 % of control. For the same molecule, the T/C (endpoint: mean survival time, dose: 200.0 mg/kg/injection, schedule: Q01DX009 (ip), vehicle: saline sonified) was 100 % of control and the T/C (endpoint: mean survival time, dose: 200.0 mg/kg/injection, schedule: Q04DX003 (ip), vehicle: saline sonified) was 103 % of control.
In the case of `O=[N+]([O-])c1ccc(Cn2cc[n+](Cc3ccc([N+](=O)[O-])cc3)c2)cc1`, the T/C [22] was 98 % of control, the T/C (endpoint: mean survival time, dose: 25.0 mg/kg/injection, schedule: Q01DX001 (ip), vehicle: saline with Tween-80) was 108 % of control and the T/C [17] was 90 % of control. The T/C (endpoint: mean survival time, dose: 50.0 mg/kg/injection, schedule: Q01DX001 (ip), vehicle: saline with Tween-80) was 104 % of control, the T/C [1] was 93 % of control and the T/C (endpoint: mean survival time, dose: 100.0 mg/kg/injection, schedule: Q01DX001 (ip), vehicle: saline with Tween-80) was 98 % of control.
With `COc1c(C)c2c(c(O)c1CCNc1ccc(S(N)(=O)=O)cc1)C(=O)OC2` the T/C [6] was 100 % of control, the T/C [8] was 96 % of control and the T/C [7] was 100 % of control.
For `CCCCCCCCCCCCCCCCCCCCCC(=O)Nc1ccn(C2OC(CO)C(O)C2O)c(=O)n1` (stereo not drawn), the T/C [6] was 212 % of control, the T/C [8] was 253 % of control and the T/C [7] was 325 % of control.
With `COc1ccc(/C=C2/C=C(c3ccccc3)OC2=O)cc1` the T/C [18] was 98 % of control, the T/C [19] was 101 % of control and the T/C [20] was 98 % of control.
With `CC(=O)OC1CCC2(C)C(=CC=C3C2CCC2(C)C3CC3OC4(CCC(C)CO4)C(C)C32)C1` (stereo not drawn) the T/C (endpoint: mean survival time, dose: 50.0 mg/kg/injection, schedule: Q01DX009 (ip), vehicle: Klucel (hydroxypropylcellulose) (HPC)) was 92 % of control, the T/C [12] was 97 % of control and the T/C [13] was 94 % of control.
`O=C(NC(=O)c1ccccc1)c1ccccc1` was tested, and the T/C [23] was 101 % of control, the T/C [9] was 103 % of control and the T/C (endpoint: mean survival time, dose: 200.0 mg/kg/injection, schedule: Q01DX001 (ip), vehicle: Klucel (hydroxypropylcellulose) (HPC)) was 102 % of control. The T/C [10] was 102 % of control, the T/C (endpoint: mean survival time, dose: 400.0 mg/kg/injection, schedule: Q01DX001 (ip), vehicle: Klucel (hydroxypropylcellulose) (HPC)) was 96 % of control and the T/C [11] was 97 % of control.
In the case of `CS(=O)(=O)OCCN(CCOS(C)(=O)=O)c1cccc(C(F)(F)F)c1`, the T/C (endpoint: mean survival time, dose: 6.25 mg/kg/injection, schedule: Q01DX015 (ip), vehicle: saline) was 113 % of control, the T/C (endpoint: mean survival time, dose: 12.5 mg/kg/injection, schedule: Q01DX015 (ip), vehicle: saline) was 119 % of control and the T/C (endpoint: mean survival time, dose: 25.0 mg/kg/injection, schedule: Q01DX015 (ip), vehicle: saline) was 107 % of control. For the same molecule, the T/C (endpoint: mean survival time, dose: 50.0 mg/kg/injection, schedule: Q01DX015 (ip), vehicle: saline) was 98 % of control.
For `NCCSC(C[N+](=O)[O-])c1ccccc1Cl` (stereo not drawn), the T/C (endpoint: median survival time, dose: 6.25 mg/kg/injection, schedule: Q01DX009 (ip), vehicle: saline) was 102 % of control, the T/C (endpoint: median survival time, dose: 12.5 mg/kg/injection, schedule: Q01DX009 (ip), vehicle: saline) was 107 % of control and the T/C (endpoint: median survival time, dose: 25.0 mg/kg/injection, schedule: Q01DX009 (ip), vehicle: saline) was 112 % of control. The T/C (endpoint: median survival time, dose: 50.0 mg/kg/injection, schedule: Q01DX009 (ip), vehicle: saline) was 123 % of control and the T/C (endpoint: median survival time, dose: 100.0 mg/kg/injection, schedule: Q01DX009 (ip), vehicle: saline) was 123 % of control.
In the case of `COc1ccc2c(c1)C=CC(C#N)N2` (stereo not drawn), the T/C [9] was 87 % of control and the T/C [10] was 91 % of control.
